Experimental data reported in patent US20180133327A1, “Cell Penetrating Peptides and Complexes Comprising the Same” (Amal Therapeutics SA, priority 2015, published 2018).

What was measured:
[1] = system: OVA257-264-specific CD8+ T cells from OT-1 T cell receptor (TCR) transgenic mice; test: Identification of the best ZEBRA CPP truncations in vitro (proliferation assay) and in vivo (CD8 T cell immune response after vaccination); format: cell-based, mouse (C57BL/6; settings: each CPP truncation conjugated to OVACD8 epitope; in vitro BMDCs loaded with 0.3 μM, 4 days with OT-1 cells; in vivo 10 nmol s.c. wk0 and wk2 with anti-CD40 and Hiltonol
Source text: The functionality of the different ZEBRA CPP truncations was validated both in vitro and in vivo, based on the capacity to stimulate MHC class-I restricted CD8 T cells specific for a model antigen OVA (OVA257-264-specific CD8^+ T cells from OT-1 T cell receptor (TCR) transgenic mice). This capacity should reflect transport of the OVA antigen cargo into APCs. The functional read-out of these experiments was proliferation of OVA-specific CD8 T cells in vitro (FIG. 2A), and for the in vivo studies, the induction of OVA-specific CD8 T cells in the blood of mice vaccinated with the different CPP-OVA conjugates together with adjuvant (FIG. 2B).
To assess the proliferation of OVA-specific CD8 T cells in vitro, bone marrow derived dendritic cells (BMDCs) were prepared from C57BL/6 mice as previously described (Santiago-Raber (2003), J. Exp. Med. 197, 777-788), and used at day 9-10 of culture.
(§1) BMDCs were loaded with 0.3 μM of each Zebra CPP truncation (Z13 to Z20) conjugated to OVACD8 epitope as described above for 4 hours at 37° C., washed 3 times, then matured overnight at 37° C. with 100 ng/ml LPS (from Salmonella abortus, equi S-form, Enzo Life Sciences). Antigen-loaded mature BMDC were then mixed at a ratio of 1:10 with OT-1 T cell receptor (TCR) transgenic mice splenocytes that had been stained with 10 μM 5-(and 6) Carboxyfluorescein diacetate succinimidyl ester (CFSE) (Life Technologies). After 4 days co-incubation of spleen cells and BMDCs, antigen-specific proliferation was assessed by flow cytometry, measuring CFSE dilution on CD8 T cells and live-gated cells. OT-1 mice express TCR specific for MHC class I restricted OVA257-264.
To assess the induction of OVA-specific CD8 T cells in vivo, C57/BL6 mice were assigned to nine different groups (Z12 to Z20, respectively). Each group of mice was vaccinated by subcutaneous injection of 10 nmol of one selected Zebra CPP truncation (one selected from Z12 to Z20) conjugated to OVACD8 epitope as described above with 100 μg of anti-CD40 at week0 and week2. Mice were also injected with 50 μg of Hiltonol i.m. (right hind leg). Mice were bled 1 wk after the 2nd vaccination in order to assess OVA257-264-specific CD8 T cells.

[2] = system: BMDC, mo-DCs, EL-4 or K562 cells; test: In vitro transduction with fluorescein-conjugated ZEBRA CPP truncation constructs (FACS); format: cell-based, human and mouse; settings: for kinetic of transduction (entry into cells): fluorescein-conjugated constructs (ZxxOVACD8FAM), 30 minutes, 2 h or 4 h, acidic wash, FACS
Method: Transduction was assessed in cells with high phagocytosis capacity (dendritic cells of human and mice origin) and in cells with poor phagocytosis capacity (T cells from human, K562, or mouse, EL4, origin). Cells were incubated for 30 minutes, 2 h or 4 h with the fluorescein-conjugated constructs (Z13OVACD8FAM, Z14OVACD8FAM, Z15OVACD8FAM or Z18OVACD8FAM) then subjected to a 30s wash with an acidic buffer to remove membrane bound peptide before FACS analysis.
In order to more directly assess the transduction capacities of the selected ZEBRA CPP truncations Z13, Z14, Z15 and Z18 fluorescein-conjugated constructs (Z13OVACD8FAM, Z14OVACD8FAM, Z15OVACD8FAM and Z18OVACD8FAM) were synthesized. To this end, 5-(and-6)-carboxyfluorescein (mixed isomers; e.g. ThermoFisher Scientific catalogue no. C194) was added to each of Z13OVACD8 (SEQ ID NO: 29), Z14OVACD8 (SEQ ID NO: 30), Z15OVACD8 (SEQ ID NO: 31) and Z18OVACD8 (SEQ ID NO: 34).
These fluorescein-conjugated constructs (Z13OVACD8FAM, Z14OVACD8FAM, Z15OVACD8FAM and Z18OVACD8FAM) were tested for their ability to transduce different human and mouse cell types, in particular (i) cells with high phagocytosis capacity, namely dendritic cells (DCs) of human […], and (ii) cells with poor phagocytosis capacity, namely T cells from human, K562, or mouse, EL4, origin). The EL-4 thymoma cell line was maintained in complete RPMI 1640 medium. The K562 cell line was maintained in complete Iscove's modified Dulbecco's medium. BMDC, mo-DCs, EL-4 or K562 cells were incubated for 4 h at 37° C. with the fluorescein-conjugated constructs as described above (Z13OVACD8FAM, Z14OVACD8FAM, Z15OVACD8FAM or Z18OVACD8FAM). For removal of membrane bound peptide prior to cell transduction, a 30s wash with an acidic buffer (0.2 M Glycine, 0.15 M NaCl, pH 3) was performed. Cells were then analyzed by flow cytometry (FACS).

[3] = system: CFSE-labeled naïve OVA257-264-specific CD8+ T cells from OT-1 TCR transgenic mice; test: In vitro epitope presentation assay, MHC class I (BMDCs, proliferation of OT-1 T cells); format: cell-based, mouse; settings: for in vitro proliferation of CD8 T cells (MHC class I presentation): BMDCs loaded 4 h with 300 nM ZxxOVACD8CD4, LPS o.n., 4 days
Method: BMDCs were loaded 4 h with 300nM of the different Zebra CPP truncation conjugated to both ovalbumin CD8 and CD4 epitopes (Z13OVACD8CD4, Z15OVACD8CD4 and Z18OVACD8CD4), then washed and incubated o.n. with 100 ng/ml of LPS. Efficient MHC class I or class II-restricted presentation was monitored after 4 days with CFSE-labeled naïve OVA257-264-specific CD8^+T cells from OT-1 T cell receptor (TCR) transgenic mice OT1 cells (A) or CFSE-labeled naïve OVA323-339-specific CD^+T cells from OT-2 T cell TCR transgenic mice respectively. As positive control, BMDCs were pulsed for 1 h with 5 uM peptide. Data from one experiment representative of three independent experiments.
as §1
In order to assess the capacity of the ZEBRA CPP truncations to stimulate an integrated immune response including CD4 T cells, antigenic cargoes were produced that included both CD8 and CD4 T cell epitopes from OVA, and conjugated to Z13, Z15 and Z18. Accordingly, the following constructs (Z13OVACD8CD4, Z15OVACD8CD4 and Z18OVACD8CD4) were synthesized:
Processing and presentation of the CD8 and CD4 T cell epitopes were monitored, as described in Example 2 for CD8 T cell epitopes, by measuring the in vitro proliferation of naïve OT-1 T cells (CD8 T cell epitopes; FIG. 4A) and OVA323-339-specific CD4^+ T cells from OT-2 T cell TCR transgenic mice, respectively (FIG. 4B). Briefly, OT-2 T cell TCR transgenic mice express TCR specific for MHC class II restricted OVA323-339.

Sequence	promoting cross-presentation (stimulation of OVA-specific CD8 T cells) [1]	kinetic of transduction (entry into cells) [2]	in vitro proliferation of CD8 T cells (MHC class I presentation) [3]	transduction efficacy, all cell types ([2]; fluorescein-conjugated constructs, compared to other ZEBRA CPP truncations)	efficiency of DC transduction and cargo delivery into the MHC class I antigen processing pathway ([3]; ZxxOVACD8CD4, 300 nM, compared with Z13 or Z15)
KRYKNRVASRKSRAKFK (CPP Z15) [ZEBRA CPP truncation]	best truncations for promoting cross-presentation	slower	proliferation of both CD8 and CD4 T cells occurred		
KRYKNRVASRKSRAKFKQLLQHYREVAAAK [Z14]	best truncations for promoting cross-presentation	rapidly entering in the majority of the cells			
KRYKNRVASRKSRAKFKQLLQHYREVAAAKSSENDRLRLLLK [Z13]	best truncations for promoting cross-presentation	rapidly entering in the majority of the cells	proliferation of both CD8 and CD4 T cells occurred		
REVAAAKSSENDRLRLLLK [Z18]	best truncations for promoting cross-presentation	slower	proliferation of both CD8 and CD4 T cells occurred	lower transduction efficacy	less efficient
